Laboratory results as given in US6472526B1, “Imidazole derivatives having an inhibitory activity for farnesyl transferase and process for preparation thereof” (LG Chemical Ltd., priority 1997, dated 2002).

Tests used:
[1] = molecular target: T1, Ras farnesyl transferase (Homo sapiens, UniProt P49354+P49356); assay: In vitro inhibitory activity for Ras farnesyl transferase, H-Ras substrate; assay type: biochemical
T1 construct: made in house

[2] = molecular target: T2, Ras farnesyl transferase (Rattus norvegicus, UniProt Q02293+Q04631); assay: In vivo (cellular) inhibitory activity for Ras farnesyl transferase, Rat2 cell line transformed with fused protein of H-Ras substituted with polybasic lysine domain at C-terminus of K-Ras; assay type: cell-based
T2 construct: endogenous in cells; host or cells: Rat2 fibroblasts transformed with H-Ras or with an H-Ras/K-Ras C-terminus fusion
Method in brief: (§1)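 Transformed Rat2 fibroblasts (H-Ras or H-Ras/K-Ras polybasic-tail fusion) treated with compound in 1% DMSO; after 4 h labelled with [35S]methionine 150 μCi/ml for 20 h. Lysates immunoprecipitated with anti-Ras Y13-259, resolved by 13.5% SDS-PAGE and autoradiography; CIC50 = concentration inhibiting 50% of Ras farnesylation from band intensities.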

[3] = molecular target: T1, Ras farnesyl transferase; assay: In vitro inhibitory activity for Ras farnesyl transferase, K-Ras substrate; assay type: biochemical
[4] = molecular target: T2, Ras farnesyl transferase; assay: In vivo (cellular) inhibitory activity for Ras farnesyl transferase, Rat2 cell line which expresses C-Harvey-Ras protein; assay type: cell-based
Method in brief: as §1

[5] = recombinant farnesyl transferase 4.5 nM, Ras substrate protein 1.5 μM, tritium-farnesylpyrophosphate 0.15 μM, 30 minutes at 37° C., read-out: H-Ras IC50
[6] = Rat2 cell line transformed with H-Ras fused with polybasic lysine domain of K-Ras C-terminus, concentration inhibiting 50% of farnesyl bonding, read-out: K-Ras CIC50
[7] = in vitro farnesyl transferase assay, K-Ras, read-out: K-Ras IC50
[8] = Rat2 cell line expressing C-Harvey-Ras, concentration inhibiting 50% of farnesyl bonding of Ras protein, read-out: H-Ras CIC50

| Compound | IC50 [1, 5] [nM] | IC50 [2, 6] [nM] | IC50 [3, 7] [nM] | IC50 [4, 8] [nM] | IC50 [1] [nM] | IC50 [2] [nM] | IC50 [3] [nM] | IC50 [4] [nM] |
| --- | --- | --- | --- | --- | --- | --- | --- | --- |
| O=C(c1cn(Cc2c[nH]cn2)cc1-c1cccc2ccccc12)N1CCSC1 [Compound 90] | 42.5 | 10000 to 100000 | 100 to 10000 | 1000 to 50000 | – | – | – | – |
| COCCN(C)C(=O)c1cn(Cc2cncn2CCc2ccc(OC)cc2)cc1-c1cccc2ccccc12 [Compound 19, 3-[N-(2-Methoxyethyl)-N-methyl]carbamoyl-1-[1-(4-methoxy)phenethyl-1H-imidazol-5-yl]methyl-4-(naphthalen-1-yl)-1H-pyrrole] | 1 | 10000 to 50000 | 3 | 20 | – | – | – | – |
| CSCc1cccc(C(=O)c2cn(Cc3c[nH]cn3)cc2-c2cccc3ccccc23)c1 [Compound 64] | 160 | 10000 to 100000 | 100 to 10000 | 1000 to 50000 | – | – | – | – |
| COCCN(C)C(=O)c1cn(Cc2cncn2CCc2ccccc2Cl)cc1-c1cccc2ccccc12 [Compound 23, 1-[1-(2-Chloro)phenethyl-1H-imidazol-5-yl]methyl-3-[N-(2-methoxyethyl)-N-methyl]carbamoyl-4-(naphthalen-1-yl)-1H-pyrrole] | 2 | 10000 to 50000 | 2 | 23 | – | – | – | – |
| O=C1CCN(C(=O)c2cn(Cc3c[nH]cn3)cc2-c2cccc3ccccc23)CC1 [Compound 92] | – | – | – | – | 70 | 10000 to 100000 | 100 to 10000 | 1000 to 50000 |
| CN1CCN(C(=O)c2cn(Cc3cncn3CCc3ccc(O)cc3)cc2-c2cccc3ccccc23)CC1 [Compound 43, 1-[1-(4-Hydroxy)phenethyl-1H-imidazol-5-yl]methyl-3-[4-mmethylpiperazin-1-yl]carbonyl-4-(naphthalen-1-yl)-1H-pyrrole] | 1 | 5000 to 10000 | 2 | 15 | – | – | – | – |
| CN(CCO)C(=O)c1cn(Cc2c[nH]cn2)cc1-c1cccc2ccccc12 [Compound 94] | 200 | 10000 to 100000 | 100 to 10000 | 1000 to 50000 | – | – | – | – |
| CN1CCN(C(=O)c2cn(Cc3cncn3CCc3ccc(F)cc3)cc2-c2cccc3ccccc23)CC1 [Compound 36, 1-[1-(4-Fluoro)phenethyl-1H-imidazol-5-yl]methyl-3-[4-methylpiperazin-1-yl]carbonyl-4-(naphthalen-1-yl)-1H-pyrrole] | 1 | 10000 to 50000 | 2 | 25 | – | – | – | – |
| COCCN(C)C(=O)c1cn(Cc2cncn2CCc2ccc(F)cc2)cc1-c1cccc2ccccc12 [Compound 35, 1-[1-(4-Fluoro)phenethyl-1H-imidazol-5-yl]methyl-3-[N-(2-methoxyethyl)-N-methyl]carbamoyl-4-(naphthalen-1-yl)-1H-pyrrole] | 1 | 10000 to 50000 | 2 | 25 | – | – | – | – |
| COC(=O)c1nc(Cc2cncn2Cc2ccc(Cl)cc2)sc1-c1cccc2ccccc12 [Compound 145, 2-[1-(4-Chlorobenzyl)-1H-imidazol-5-ylmethyl]-4-methoxycarbonyl-5-(naphthalen-1-yl)thiazole] | 7 | 25000 | 70 | 100 | – | – | – | – |
| COCCN(C)C(=O)c1cn(Cc2cncn2Cc2cccc3ccccc23)cc1-c1cccc2ccccc12 [Compound 5] | 3.7 | 10000 to 50000 | 8.5 | 25 | – | – | – | – |
| CSCCc1ccc(C(=O)c2cn(Cc3c[nH]cn3)cc2-c2cccc3ccccc23)cc1 [Compound 62] | 68 | 10000 to 100000 | 100 to 10000 | 1000 to 50000 | – | – | – | – |
| CSCC[C@H](NC(=O)c1cn(Cc2cncn2Cc2ccc(C#N)cc2)cc1-c1cccc2ccccc12)C(=O)O [Compound 101, (S)-1-[1-(4-Cyanobenzyl)-1H-imidazol-5-yl]methyl-3-[N-(1-hydroxycarbonyl-3-methylthio)propyl]carbamoyl-4(naphthalen-1-yl)-1H-pyrrole] | 10 | > 50000 | 800 | > 5000 | – | – | – | – |
| C[C@@H](c1ccccc1)n1cncc1Cn1cc(C(=O)N2CCN(C)CC2)c(-c2cccc3ccccc23)c1 [Compound 13, 1-[1-((S)-α-Methylbenzyl)-1H-imidazol-5-ylmethyl]-3-(4-methylpiperazin-1-yl)carbonyl-4-(naphthalen-1-yl)-1H-pyrrole] | 0.85 | 10000 to 50000 | 5 | 12.5 | – | – | – | – |
| Cc1ccccc1C(=O)c1cn(Cc2c[nH]cn2)cc1-c1cccc2ccccc12 [Compound 50] | 150 | 10000 to 100000 | 100 to 10000 | 1000 to 50000 | – | – | – | – |
| O=C(c1cn(Cc2c[nH]cn2)cc1-c1ccnc2ccccc12)N1CCOCC1 [Compound 96] | 230 | 10000 to 100000 | 100 to 10000 | 1000 to 50000 | – | – | – | – |

| Compound | IC50 [1, 5] [nM] | IC50 [2, 6] [nM] | IC50 [3, 7] [nM] | IC50 [4, 8] [nM] | IC50 [1] [nM] | IC50 [2] [nM] | IC50 [3] [nM] | IC50 [4] [nM] |
| --- | --- | --- | --- | --- | --- | --- | --- | --- |
| O=C(c1ccccc1)c1cn(Cc2c[nH]cn2)cc1-c1cccc2ccccc12 [Compound 46] | 120 | 10000 to 100000 | 100 to 10000 | 1000 to 50000 | – | – | – | – |
| O=C(c1ccn(Cc2cncn2Cc2ccc(Br)cc2)c1)c1cccc2ccccc12 [Compound 140, 1-[1-(4-Bromobenzyl)-1H-imidazol-5-yl]methyl-3-(naphthalen-1-yl)carbonyl-1H-pyrrole] | – | – | – | – | 90 | 10000 to 50000 | 10000 to 50000 | 1000 to 10000 |
| COCCN(C)C(=O)c1cn(Cc2cncn2CCCc2ccccc2)cc1-c1cccc2ccccc12 [Compound 27, 3-[N-(2-Methoxyethyl)-N-methyl]carbamoyl-4-(naphthalen-1-yl)-1-[1-(3-pheny)propyl-1H-imidazol-5-yl]methyl-1H-pyrrole] | 6 | 10000 to 30000 | 5 | 25 | – | – | – | – |
| O=C(NCc1ccccc1)c1cn(Cc2c[nH]cn2)cc1-c1cccc2ccccc12 [Compound 83] | 260 | 10000 to 100000 | 18500 | 1000 to 50000 | – | – | – | – |
| COCCN(C)C(=O)c1cn(Cc2cncn2CC(C)C)cc1-c1cccc2ccccc12 [Compound 115, 1-(1-Isobutyl-1H-imidazol-5-yl)methyl-3-[N-(2-methoxyethyl)-N-methyl]carbamoyl-4-(naphthalen-1-yl)-1H-pyrrole] | 2 | < 50000 | 35 | 25 | – | – | – | – |
| CN1CCN(C(=O)c2cn(Cc3cncn3Cc3ccccc3F)cc2-c2cccc3ccccc23)CC1 [Compound 135, 1-[1-(2-Fluorobenzyl)-1H-imidazol-5-yl]methyl-3-(4-methylpiperazin-1-yl)carbonyl-4-(naphthalen-1-yl)-1H-pyrrole] | 2.4 | 10000 to 50000 | 4 | 30 | – | – | – | – |
| O=C(c1ccc(Cl)cc1Cl)c1cn(Cc2c[nH]cn2)c(Cc2ccccc2)c1-c1cccc2ccccc12 [Compound 72] | 50 | 10000 to 100000 | 100 to 10000 | 1000 to 50000 | – | – | – | – |
| COC(=O)[C@H](CCSC)NC(=O)c1cn(Cc2c[nH]cn2)cc1-c1cccc2ccccc12 [Compound 80, (S)-1-(1H-Imidazol-4-yl)methyl-3-[N-(1-methoxycarbonyl-3-methylthio)propyl]carbamoyl-4-(naphthalen-1-yl)-1H-pyrrole] | 8210 | 10000 to 100000 | 100 to 10000 | 1000 to 50000 | – | – | – | – |
| CN1CCN(C(=O)c2cn(Cc3cncn3CCc3ccccc3Cl)cc2-c2cccc3ccccc23)CC1 [Compound 24, 1-[1-(2-Chloro)phenethyl-1H-imidazol-5-yl]methyl-3-[4-methylpiperazin-1-yl]carbonyl-4-(naphthalen-1-yl)-1H-pyrrole] | 2 | 10000 to 50000 | 3 | 25 | – | – | – | – |
| Cc1cccc(Cn2cncc2Cn2cc(C(=O)N3CCN(C)CC3)c(-c3cccc4ccccc34)c2)c1 [Compound 138, 1-[1-(3-Methylbenzyl)-1H-imidazol-5-yl]methyl-3-(4-methylpiperazin-1-yl)carbonyl-4-(naphthalen-1-yl)-1H-pyrrole] | 1.4 | 10000 to 50000 | 3.5 | 25 | – | – | – | – |
| O=C(c1ccc(Cl)cc1Cl)c1cn(Cc2c[nH]cn2)cc1-c1cccc2ccccc12 [Compound 57] | 38 | 10000 to 100000 | 100 to 10000 | 1000 to 50000 | – | – | – | – |
| CSCc1ccc(C(=O)c2cn(Cc3c[nH]cn3)cc2-c2cccc3ccccc23)cc1 [Compound 61] | 740 | 10000 to 100000 | 100 to 10000 | 1000 to 50000 | – | – | – | – |
| Cc1ccc(C(=O)c2cn(Cc3c[nH]cn3)cc2-c2cn(C)c3ccccc23)cc1 [Compound 70] | 210 | 10000 to 100000 | 100 to 10000 | 1000 to 50000 | – | – | – | – |
| CN1CCN(C(=O)c2cn(Cc3cncn3CCc3cccc4ccccc34)cc2-c2cccc3ccccc23)CC1 [Compound 32, 3-[4-Methylpiperazin-1-yl]carbonyl-4-(naphthalen-1-yl)-1-{1-[2-(naphthalen-1-yl)ethyl]-1H-imidazol-5-yl}methyl-1H-pyrrole] | 2 | 10000 to 50000 | 3 | 15 | – | – | – | – |
| CN1CCN(C(=O)c2cn(Cc3cncn3Cc3ccc(C#N)cc3)cc2-c2cccc3ccccc23)CC1 [Compound 105] | 0.4 | > 50000 | 90 | 50 | – | – | – | – |
